{
  "source": "patent US20100210536A1",
  "about": "“USE OF LEPTIN (22-56 ) AS A THERAPEUTIC AGENT” (priority 2007, published 2010)",
  "key": {"in vitro [1]": {"test": "in vitro", "settings": "human, HepG2-2.2.15 cells"}, "Streptococcus pneumoniae": {"tested_on": "Streptococcus pneumoniae", "type": "cell-based", "settings": "5 micrograms per ml"}, "Pseudomonas aeruginosa": {"tested_on": "Pseudomonas aeruginosa", "type": "cell-based", "settings": "5 micrograms per ml"}, "MRSA": {"tested_on": "MRSA", "settings": "5 micrograms per ml"}, "in vitro [2]": {"test": "in vitro", "settings": "human, MRC-5 cells"}, "in vitro [3]": {"test": "in vitro", "settings": "human"}, "MRC-5 cells": {"tested_on": "MRC-5 cells", "test": "Cytotoxicity in MRC-5 cells (CellTiter 96 cell viability)", "settings": "6 days incubation"}},
  "note": "Where no end group is shown, it is not given here.",
  "data": [
    {"molecule": "VPIQKVQDDTKTLIKTIVTRINDISHTQSVSSKQK-OH [Leptin (22-56)]", "values": [
      {"measurement": "viability at 144 h, 10 micrograms per ml", "setting": "in vitro [1]", "result": 100, "unit": "%"},
      {"measurement": "% inhibition", "setting": "Streptococcus pneumoniae", "result": 0.0, "unit": "%"},
      {"measurement": "% inhibition", "setting": "Pseudomonas aeruginosa", "result": 0.0, "unit": "%"},
      {"measurement": "% inhibition", "setting": "MRSA", "result": 0.0, "unit": "%"},
      {"measurement": "viability at 144 h", "setting": "in vitro [2]", "result": 100, "unit": "%"},
      {"measurement": "viability at 10 micrograms per ml", "setting": "in vitro [3]", "result": 93.5, "unit": "%"}
    ]},
    {"molecule": "Nc1nc(O)c2ncn(COC(CO)CO)c2n1", "note": "[Ganciclovir]", "values": [
      {"measurement": "% Cell viability", "setting": "MRC-5 cells", "result": 100, "unit": "%"}
    ]}
  ]
}
